# Assays:
# Assay type in all cases: cell-based
# [1] = system: Candida albicans ATCC 10231; conditions: compared to 1 and 2
# Human erythrocytes = experiment: Hemolytic assay; conditions: tested concentrations
# [2] = system: Candida glabrata ATCC 2001; experiment: MIC, serial dilution antifungal assay
Substance,fold more potent (MIC) than wild-type fermentation products 1 and 2 against C. albicans [1],hemolytic activity relative to pneumocandin B0 (overall) (Human erythrocytes),fold improvement of MIC against C. glabrata compared to 1 [2]
pneumocandin I [Compound 5],8 fold,comparable to pneumocandin B0,32 fold
pneumocandin K [Compound 7],4 fold,higher hemolytic activity than pneumocandin B0,32 fold
